Drawing on ChEMBL document CHEMBL1136879, “Studies on novel 2-imidazolidinones and tetrahydropyrimidin-2(1H)-ones as potential TACE inhibitors: design, synthesis, molecular modeling, and preliminary biological evaluation” (Bioorg Med Chem, 2009), this text covers inhibition for 24 compounds.

Molecules are shown by their SMILES.

In this assay the target is Disintegrin and metalloproteinase domain-containing protein 17 (Homo sapiens) (UniProt P78536). Nature of the assay: Inhibition of TACE in human THP1 cell lysate at 0.1 uM/L by spectrofluorimetric ELISA relative to control. The class given is cell-free. Particulars: THP-1.
Sequence of Disintegrin and metalloproteinase domain-containing protein 17 (Homo sapiens) (P78536 whole entry, the tested form may be a part): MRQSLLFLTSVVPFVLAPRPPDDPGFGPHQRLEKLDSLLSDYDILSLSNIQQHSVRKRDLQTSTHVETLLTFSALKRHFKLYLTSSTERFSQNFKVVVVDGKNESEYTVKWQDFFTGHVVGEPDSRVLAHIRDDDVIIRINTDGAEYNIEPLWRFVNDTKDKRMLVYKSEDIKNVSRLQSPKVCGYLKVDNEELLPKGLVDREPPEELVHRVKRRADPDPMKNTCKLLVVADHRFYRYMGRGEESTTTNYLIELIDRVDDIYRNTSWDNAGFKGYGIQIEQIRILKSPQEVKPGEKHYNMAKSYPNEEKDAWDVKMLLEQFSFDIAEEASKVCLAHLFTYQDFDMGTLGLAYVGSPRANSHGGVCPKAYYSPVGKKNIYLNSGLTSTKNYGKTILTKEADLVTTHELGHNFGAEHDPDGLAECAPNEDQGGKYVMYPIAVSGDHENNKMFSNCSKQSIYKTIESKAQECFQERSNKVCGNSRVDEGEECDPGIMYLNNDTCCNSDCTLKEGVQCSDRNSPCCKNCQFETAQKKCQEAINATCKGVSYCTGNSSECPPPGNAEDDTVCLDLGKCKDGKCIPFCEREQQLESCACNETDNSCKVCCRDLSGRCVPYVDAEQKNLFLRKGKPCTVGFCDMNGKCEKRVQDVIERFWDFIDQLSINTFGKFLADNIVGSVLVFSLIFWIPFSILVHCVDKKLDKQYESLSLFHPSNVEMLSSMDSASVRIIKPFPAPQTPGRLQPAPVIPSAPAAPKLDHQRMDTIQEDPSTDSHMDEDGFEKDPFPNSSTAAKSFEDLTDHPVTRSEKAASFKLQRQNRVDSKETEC
Usually inhibition stands for the drop in the measured response relative to a control, in per cent. Read a low inhibition as a response near the control. `CC(C(=O)NO)N1CCN(c2cccc(OCc3ccc([N+](=O)[O-])cc3)c2)C1=O` (centres undefined) came in with an inhibition of 40%.

With `COc1ccc(CSc2ccc(N3CCN(C(C)C(=O)O)C3=O)cc2)cc1` (centres undefined), the inhibition is 40%.

With `CC(C(=O)O)N1CCCN(c2ccc(OCc3ccccn3)cc2)C1=O` (centres undefined), the inhibition came to 35%.

`CC(C)Cc1cc(COc2ccc(N3CCN(C(C)C(=O)NO)C3=O)cc2)c2ccccc2n1` (centres undefined) registered an inhibition of 60%.

The compound `CC(C(=O)NO)N1CCCN(c2ccc(OCc3ccccc3)cc2)C1=O` (centres undefined) came in with an inhibition of 28%.

Compound `CCc1cc(COc2ccc(N3CCN(C(C)C(=O)O)C3=O)cc2)c2ccccc2n1` (centres undefined) came in with an inhibition of 49%.

The compound `CC(C(=O)NO)N1CCN(c2ccc(OCc3cccc4ccccc34)cc2)C1=O` (centres undefined) had an inhibition of 36%.

`CCc1cc(COc2ccc(N3CCCN(C(C)C(=O)NO)C3=O)cc2)c2ccccc2n1` (centres undefined) returned an inhibition of 34%.

`CC(C(=O)O)N1CCN(c2ccc(OCc3ccccn3)cc2)C1=O` (centres undefined) came in with an inhibition of 28%.

For `COc1ccc(COc2ccc(N3CCN(C(C)C(=O)NO)C3=O)cc2)cc1` (centres undefined), the inhibition worked out at 38%.

`CC(C)C[C@H](CC(=O)NO)C(=O)N[C@@H](C)C(=O)N(c1cccc2ccccc12)[C@@H](C)C(=O)NCCN` had an inhibition of 28%.

Turning to `CC(C(=O)NO)N1CCN(c2cccc(OCc3ccccc3)c2)C1=O` (centres undefined), the inhibition came to 39%.

As for `CC(C(=O)O)N1CCN(c2ccc(OCc3ccc(-c4ccccc4)cc3)cc2)C1=O` (centres undefined), the inhibition amounted to 30%.

Regarding `CC(C(=O)NO)N1CCCN(c2ccc(OCc3ccccn3)cc2)C1=O` (centres undefined), the inhibition came to 37%.

The compound `CC(C)Cc1cc(COc2ccc(N3CCN(C(C)C(=O)O)C3=O)cc2)c2ccccc2n1` (centres undefined) had an inhibition of 47%.

Compound `CC(C(=O)NO)N1CCN(c2ccc(OCc3ccccn3)cc2)C1=O` (centres undefined) registered an inhibition of 50%.

`CC(C(=O)NO)N1CCCN(c2ccc(OCc3cccc4ccccc34)cc2)C1=O` (centres undefined) registered an inhibition of 40%.

`CC(C(=O)O)N1CCCN(c2ccc(OCc3cc(-c4ccccc4)nc4ccccc34)cc2)C1=O` (centres undefined) came in with an inhibition of 31%.

The compound `COc1ccc(COc2ccc(N3CCCN(C(C)C(=O)NO)C3=O)cc2)cc1` (centres undefined) returned an inhibition of 18%.

In turn, `CC(C)Cc1cc(COc2ccc(N3CCCN(C(C)C(=O)O)C3=O)cc2)c2ccccc2n1` (centres undefined) had an inhibition of 20%.

In turn, `CC(C(=O)O)N1CCCN(c2ccc(OCc3ccc(-c4ccccc4)cc3)cc2)C1=O` (centres undefined) returned an inhibition of 28%.

The compound `CCc1cc(COc2ccc(N3CCN(C(C)C(=O)NO)C3=O)cc2)c2ccccc2n1` (centres undefined) came in with an inhibition of 62%.

On to `CC(C(=O)O)N1CCN(c2ccc(OCc3cc(-c4ccccc4)nc4ccccc34)cc2)C1=O` (centres undefined), for which the inhibition was found to be 30%.

In the case of `COc1ccc(CSc2ccc(N3CCN(C(C)C(=O)NO)C3=O)cc2)cc1` (centres undefined), the inhibition worked out at 42%.
